Laboratory results from ChEMBL document CHEMBL3751723, “Discovery of highly potent dual EP(2) and EP(3) agonists with subtype selectivity” (Bioorg Med Chem Lett, 2016).

Experiments:
[1] = biological target: Prostaglandin E2 receptor EP2 subtype (Homo sapiens, UniProt P43116); assay: Agonist activity at human EP2 receptor
[2] = biological target: T1, Prostaglandin E2 receptor EP3 subtype (Homo sapiens, UniProt P43115); assay: Agonist activity at human EP3 receptor
T1 sequence (P43115 whole entry): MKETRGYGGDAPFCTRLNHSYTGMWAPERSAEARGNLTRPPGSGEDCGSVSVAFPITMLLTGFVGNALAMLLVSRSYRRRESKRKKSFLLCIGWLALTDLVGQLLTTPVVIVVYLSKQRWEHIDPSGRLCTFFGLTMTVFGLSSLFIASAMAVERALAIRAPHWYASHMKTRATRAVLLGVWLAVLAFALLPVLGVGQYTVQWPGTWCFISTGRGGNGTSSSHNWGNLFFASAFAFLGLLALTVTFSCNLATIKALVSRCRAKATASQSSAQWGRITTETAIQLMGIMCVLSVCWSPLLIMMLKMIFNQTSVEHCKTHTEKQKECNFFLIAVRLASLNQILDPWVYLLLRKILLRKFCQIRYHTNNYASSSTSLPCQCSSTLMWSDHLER

[3] = biological target: Prostaglandin E2 receptor EP4 subtype (Homo sapiens, UniProt P35408); assay: Agonist activity at human EP4 receptor
Sequence of Prostaglandin E2 receptor EP4 subtype (P35408 whole entry): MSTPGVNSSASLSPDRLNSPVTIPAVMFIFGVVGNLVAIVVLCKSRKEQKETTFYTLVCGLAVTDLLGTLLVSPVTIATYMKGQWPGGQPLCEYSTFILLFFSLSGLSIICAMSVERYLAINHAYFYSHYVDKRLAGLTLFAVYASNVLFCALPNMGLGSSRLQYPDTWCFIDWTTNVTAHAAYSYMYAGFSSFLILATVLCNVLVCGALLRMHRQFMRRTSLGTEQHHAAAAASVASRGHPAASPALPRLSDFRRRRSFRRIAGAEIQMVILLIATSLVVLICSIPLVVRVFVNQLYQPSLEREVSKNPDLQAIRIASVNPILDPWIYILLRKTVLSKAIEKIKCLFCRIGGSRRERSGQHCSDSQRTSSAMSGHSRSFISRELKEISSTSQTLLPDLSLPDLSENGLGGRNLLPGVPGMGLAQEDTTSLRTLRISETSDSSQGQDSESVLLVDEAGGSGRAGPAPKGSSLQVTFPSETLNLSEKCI

[4] = biological target: T2, Prostaglandin E2 receptor EP1 subtype (Homo sapiens, UniProt P34995); assay: Binding affinity to human EP1 receptor
T2 sequence (P34995 whole entry): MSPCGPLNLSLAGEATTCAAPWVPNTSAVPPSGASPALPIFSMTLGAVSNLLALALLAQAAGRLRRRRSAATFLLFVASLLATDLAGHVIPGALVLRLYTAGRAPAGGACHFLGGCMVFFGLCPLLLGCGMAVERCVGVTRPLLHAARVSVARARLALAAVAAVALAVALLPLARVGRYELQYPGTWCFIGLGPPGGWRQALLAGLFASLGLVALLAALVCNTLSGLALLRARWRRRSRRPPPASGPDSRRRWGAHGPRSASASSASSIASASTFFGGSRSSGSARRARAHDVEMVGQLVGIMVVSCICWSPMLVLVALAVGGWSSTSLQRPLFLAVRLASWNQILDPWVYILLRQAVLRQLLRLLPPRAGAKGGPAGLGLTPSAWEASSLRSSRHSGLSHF

[5] = Clearance in rat at 0.01 mg/kg, iv; type: ADME, organism-based; conditions: in vivo
[6] = Half life in rat at 0.01 mg/kg, iv; type: ADME, organism-based; conditions: in vivo
[7] = AUC in rat at 1 mg/kg, po; type: ADME, organism-based; conditions: in vivo
[8] = Oral bioavailability in rat at 1 mg/kg; type: ADME, organism-based; conditions: in vivo

Sequence of Prostaglandin E2 receptor EP2 subtype (P43116 whole entry): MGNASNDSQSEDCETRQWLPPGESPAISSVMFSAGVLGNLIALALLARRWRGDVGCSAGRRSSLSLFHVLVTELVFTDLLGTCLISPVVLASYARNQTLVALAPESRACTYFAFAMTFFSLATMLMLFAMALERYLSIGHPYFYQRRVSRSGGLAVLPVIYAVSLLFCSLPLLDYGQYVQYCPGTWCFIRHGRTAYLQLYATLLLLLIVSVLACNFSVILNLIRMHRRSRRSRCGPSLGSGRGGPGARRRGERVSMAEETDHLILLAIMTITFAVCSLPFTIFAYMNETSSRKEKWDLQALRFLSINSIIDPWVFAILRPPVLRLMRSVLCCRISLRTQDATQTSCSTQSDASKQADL

## CCCC[C@H](C)C[C@H](O)/C=C/[C@H]1CCC(=O)N1CCSc1nc(C(=O)O)cs1
[1]
  EC50: 0.00039 µM
[2]
  EC50: 0.31 µM
[3]
  EC50: 0.003 µM

## CCCCC(C)(C)[C@H](O)/C=C/[C@H]1CCC(=O)N1CCSc1nc(C(=O)O)cs1
[1]
  EC50: 0.00091 µM
[2]
  EC50: 0.0084 µM
[3]
  EC50: 0.0042 µM

## O=C(O)c1csc(SCCN2C(=O)OC[C@@H]2/C=C/[C@@H](O)C2(CCCCF)CCC2)n1
[1]
  EC50: 0.0029 µM
[2]
  EC50: 0.01 µM
[3]
  EC50: 0.195 µM
[4]
  Ki: 1.08 µM
[5]
  clearance: 9.5 mL/min/kg
[6]
  half-life: 4.4 h
[7]
  AUC: 41 ng·h/mL
[8]
  bioavailability: 2.5%

## COCCCC1([C@H](O)/C=C/[C@H]2COC(=O)N2CCSc2nc(C(=O)O)cs2)CCC1
[1]
  EC50: 0.018 µM
[2]
  EC50: 0.025 µM
[3]
  EC50: 0.705 µM
[4]
  Ki: > 10 µM

## O=C(O)c1csc(SCCN2C(=O)OC[C@@H]2/C=C/[C@@H](O)C2(CCc3ccccc3)CCC2)n1
[1]
  EC50: 0.16 µM
[2]
  EC50: 0.027 µM
[3]
  EC50: 0.465 µM
[4]
  Ki: 0.802 µM

## CCOCCC1([C@H](O)/C=C/[C@H]2COC(=O)N2CCSc2nc(C(=O)O)cs2)CCC1
[1]
  EC50: 0.029 µM
[2]
  EC50: 2.61 µM
[3]
  EC50: 0.745 µM
[4]
  Ki: 8.42 µM

## CCCCC1([C@H](O)/C=C/[C@H]2COC(=O)N2CCSc2nc(C(=O)O)cs2)CCC1
[1]
  EC50: 0.0029 µM
[2]
  EC50: 0.0039 µM
[3]
  EC50: 0.073 µM
[4]
  Ki: 0.22 µM

## CCCCC(C)(C)[C@H](O)/C=C/[C@H]1COC(=O)N1CCSc1nc(C(=O)O)cs1
[1]
  EC50: 0.0074 µM
[2]
  EC50: 0.05 µM
[3]
  EC50: 0.32 µM
[4]
  Ki: 0.12 µM

## CC#CCC1([C@H](O)/C=C/[C@H]2COC(=O)N2CCSc2nc(C(=O)O)cs2)CCC1
[1]
  EC50: 0.021 µM
[2]
  EC50: 0.018 µM
[3]
  EC50: 0.24 µM
[4]
  Ki: 0.089 µM

## CC(C)(CCCCF)[C@H](O)/C=C/[C@H]1COC(=O)N1CCSc1nc(C(=O)O)cs1
[1]
  EC50: 0.0057 µM
[2]
  EC50: 0.0047 µM
[3]
  EC50: 1.22 µM
[4]
  Ki: 0.431 µM

## CC(C)(C)CCC1([C@H](O)/C=C/[C@H]2COC(=O)N2CCSc2nc(C(=O)O)cs2)CCC1
[1]
  EC50: 3.7 µM
[2]
  EC50: 0.0067 µM
[3]
  EC50: 4.71 µM
[4]
  Ki: 0.149 µM

## O=C(O)c1csc(SCCN2C(=O)OC[C@@H]2/C=C/[C@@H](O)C2(CCC3CCCCC3)CCC2)n1
[1]
  EC50: 0.06 µM
[2]
  EC50: 0.0074 µM
[3]
  EC50: 8.39 µM
[4]
  Ki: 1.33 µM
